We go through 1 substance from PMC11277145, “Wrinkle-Improving Effect of Novel Peptide That Binds to Nicotinic Acetylcholine Receptor” (International Journal of Molecular Sciences, 2024).

Where no end group is shown, it is not given here.

The subject of the data set is human cornea model (MCTT HCE^TM). Nature of the data set: Eye irritation test, human cornea model (MCTT HCE). The following applies: for Cell survival (%Control): 10 min exposure, 18 h post-culture, WST-1; for Average absorption: mean of N1 and N2; for Absorption (N1): replicate N1, WST-1, 450 nm; for Absorption (N2): replicate N2, WST-1, 450 nm. In kind it is cell-based. Here is the method: To evaluate the eye irritation potential of the peptide, an in vitro experimental model recognized by the OECD as an alternative animal evaluation method, the human cornea model (MCTT HCE^TM), was used. The experiment was conducted according to the standard experimental method provided by the manufacturer, Biosolution (Seoul, Republic of Korea). First, before the experiment, the color interference of the test material was checked, and to begin the experiment, MCTT HCE^TM was incubated for 22 h at 5% CO2 and 37 °C. Next, 40 μL of the peptide was applied to the top of the MCTT HCE^TM and left to react for 10 min. Afterwards, the peptide was removed using DPBS, and MCTT HCE^TM was transferred to a new medium and cultured for 18 h at 5% CO2 and 37 °C. After the culture was completed, 200 μL/well of WST-1 solution diluted at a ratio of 1:25 was added to a new plate, MCTT HCE^TM was transferred thereon, and 100 μL of WST-1 solution was treated inside.

Consider RRGVRR [Peptide 289], for which, for the setting “0.1ppm”, the “Average absorption, second value” came out at 1.469; the “Cell survival (%Control)” value was found to be 105.30%; the Average absorption worked out at 1.523; the “Absorption (N1)” value is 1.461. In addition, under “0.1ppm”, the “Absorption (N2)” value was 1.585. Also, the “eye irritation” value (0.1 ppm to 100 ppm, MCTT HCE) was “non-irritating”. Moreover, where the note is “1ppm”, the “Average absorption, second value” was determined as 1.553; the “Cell survival (%Control)” value came to 111.30%; the Average absorption is recorded as 1.607; the “Absorption (N1)” value is recorded as 1.558. For the same substance, where the note is “1ppm”, the “Absorption (N2)” value stood at 1.656. In addition, where the note is “10ppm”, the “Average absorption, second value” came out at 1.47; the “Cell survival (%Control)” value is 105.30%; the Average absorption is 1.524; the “Absorption (N1)” value is reported as 1.464. In addition, the “Absorption (N2)” value (10ppm) amounted to 1.583. In addition, for the setting “100ppm”, the “Average absorption, second value” was 1.456; the “Cell survival (%Control)” value is 104.30%; the Average absorption stood at 1.51; the “Absorption (N1)” value is 1.563. Moreover, the “Absorption (N2)” value (100ppm) is recorded as 1.456.
